# In patent US11827624B2, “Covalent immune recruiter compounds for immune cell recognition and associated uses” (McMaster University, priority 2020, dated 2023):
# Test system: PSMA+HEK cells
# Assay: Luminescence ADCC reporter (CD16α activation) assay with mmAb
# Assay type: cell-based, human
# Conditions: antibody 10^−7-10^−9 M
# Method: Covalent vs. non-covalent antibody recruitment were compared in functional immune assays. Activation of NK cell CD16α immune receptors was assessed via luminescence based ADCC assays. ADCC was quantified using the ADCC Reportor Bioassay kit (Promega G7010). All ADCC induced luminescence was measured on a SpectraMax i3 plate reader (Molecular Devices). The human IgG isotype control used was purchased from Jackson ImmunoResearch (009-000-003). The human IgG1 monoclonal anti-DNP antibody (mAb) was purchased from Acrobiosystems (DNP-M2). Human IgG from serum was purchased from Innovative Research ([…]1000MG). Anti-DNP depleted serum was made from human IgG from serum (Innovative Research). For PSMA competition controls, 2-PMPA was purchased from Sigma (SML1612). Hek-293T (PSMA+/−) cell lines were generously given by Dr. Cyril Barinka (Institute of Biotechnology CAS, Czech Republic). Ultra low IgG FBS was purchased from Fischer Scientific (A3381901). RPMI-1640 was purchased as a powder from Fischer Scientific (31800089) and resuspended. DMEM was purchased as a powder from Fischer Scientific (12800082) and resuspended. Pen/Strep was purchased from Fischer Scientific (15140-122). FBS was purchased from Fischer Scientific (12484-028). Zeocin was purchased from Fischer Scientific (R25001). HEK-PSMA cells were cultured in DMEM media with 2 mM L-glut, 1% Pen/Strep, 10% FBS, 50 ug/mL Zeocin. HEK cells were cultured in DMEM media with 2 mM L-glut, 1% Pen/Strep, 10% FBS.
# Preparation of antibody-CIR/ARM stocks were mixed overnight prior to addition to the ADCC plate. In the case of mmAb and mAb, incubation was carried out at 600 nM antibody and 1.2 μM CIR or ARM. In the case of IgG from serum, incubation was completed at 230 μM antibody and 8.7 μM CIR or ARM. In all cases, DMSO was kept close to 1%. After the overnight incubation, a dilution series was completed on the antibody-CIR/ARM stocks in RPMI (1% DMSO). […] 75 μL of Bio-Glo Luciferase Assay Reagent was added to each well, and luminescence was quantified using the SpectraMax i3 plate reader. […]
row,Structure (SMILES),CD16α based target immune recognition
1,"O=C(O)CC[C@H](NC(=O)N[C@@H](CCCCNC(=O)NCCOCCOCCOCCOCCOCCOCCOCCOC(=O)NCCOCCn1cc(CNc2ccc([N+](=O)[O-])cc2[N+](=O)[O-])nn1)C(=O)O)C(=O)O [ARM 12, reference compound]",largely unable to mediate immune recognition of target HEK cells
2,O=C(O)CC[C@H](NC(=O)N[C@@H](CCCCNC(=O)NCCOCCOCCOCCOCCOCCOCCOCCOC(=O)n1cnc(CCn2cc(CNc3ccc([N+](=O)[O-])cc3[N+](=O)[O-])nn2)c1)C(=O)O)C(=O)O [CIR 5],robust target immune recognition
